Measured values published in patent US20250123280A1, “LABEL-FREE DETECTION OF PROTEASE ACTIVITY” (OREGON HEALTH & SCIENCE UNIVERSITY, priority 2021, published 2025).
Peptide text beside a SMILES is read from it. * marks the point of attachment. Fmoc = O=C(OCC1c2ccccc2-c2ccccc21)*

Columns and labels:
legumain = biological target: T1, legumain (Mus musculus, UniProt O89017); assay: LC-MS analysis of hydrolysis of peptide 1 by legumain; format: biochemical; settings: peptide about 0.5 mg/mL, legumain about 1000 ng/mL, 37° C., about 2 hours
T1 construct: purchased Novus Biologicals
T1 sequence (O89017 18-325 limits assumed): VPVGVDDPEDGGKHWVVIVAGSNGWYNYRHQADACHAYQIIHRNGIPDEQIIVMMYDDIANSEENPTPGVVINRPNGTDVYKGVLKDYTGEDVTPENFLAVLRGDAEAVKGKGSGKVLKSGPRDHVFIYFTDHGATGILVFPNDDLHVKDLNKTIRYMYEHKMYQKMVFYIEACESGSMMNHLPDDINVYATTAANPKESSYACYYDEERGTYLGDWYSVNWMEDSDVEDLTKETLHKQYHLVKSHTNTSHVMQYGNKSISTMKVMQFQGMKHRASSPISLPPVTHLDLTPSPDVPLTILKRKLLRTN
Description: Fluorescence spectroscopy. For fluorescence measurements, peptide 2 was dissolved in DMSO to give a peptide concentration of 10 mg/mL, and it was 5× diluted in DMSO or the assay buffer and fluorescence spectra of the Fmoc groups were recorded using an FP-8500 spectrofluorometer (JASCO, Inc). Liquid chromatography mass spectrometry (LC-MS) measurements. LC-MS measurements were carried using an Acquity UPLC System (Waters) equipped with a SQ Detector 2 (Waters) and a C18 column (Waters). For LC-MS measurement, peptide 1 was first dissolved in ultrapure water containing 25% DMSO and diluted in PBS and MES mixture with or without legumain as described above. Final peptide concentration was about 0.5 mg/mL and legumain concentrations were about 0 ng/mL and about 1000 ng/mL. Samples were incubated at 37° C. for about 2 hours, diluted in HPLC grade water and acetonitrile mixture (1:1) containing 1% formic acid, and loaded to the column.

[1] = CD time-course of structures formed by peptide 1 with legumain; format: physicochemical; settings: after two weeks with legumain, 37° C.
Description: A time-course study of the legumain assay was also run. Peptide 1 was dissolved at 0.333 mg/mL in low far-UV absorbance CD buffer, pH 5.5-6. Legumain was activated for abut 2 hours at 37° C. in far-UV absorbance CD buffer, pH 4. Spectra were acquired from 260-190 nm with 1.0 nm band-width, 20 nm/min scan speed, and 2 sec integration time. A 5 minute acquisition cycle was automatically run 26 times, followed by manual acquisitions at 28 hours, 53 hours, 78 hours, and 14 days. The temperature was maintained at 37° C. throughout. Legumain (333 ng/mL) was mixed with peptide 1 just prior to acquisition of the second spectrum (the 0 min time point). All spectra were subsequently background subtracted and then smoothed using a Savitsky-Golay filter. Data are presented in units of molar circular dichroism, Δε(M^−1 cm^−1).

- peptide cleaved by legumain (LC-MS) (legumain): ~30%
- stability of the formed structures (CD spectrum) [1]: long-term stability
Compound: C[C@H](NC(=O)[C@H](C)NC(=O)[C@H](CCC(=O)O)NC(=O)[C@H](Cc1ccccc1)NC(=O)[C@H](CCCCN)NC(=O)[C@H](Cc1ccccc1)NC(=O)OCC1c2ccccc2-c2ccccc21)C(=O)N[C@@H](CC(N)=O)C(=O)NCC(=O)N[C@@H](CCC(=O)O)C(=O)N[C@@H](CCC(=O)O)C(=O)NCC(=O)N[C@@H](CO)C(=O)NCC(=O)N[C@@H](CCC(=O)O)C(=O)N[C@@H](CCC(=O)O)C(=O)O [peptide 1] (Fmoc-FKFEAANGEEGSGEE-OH; C-terminus assumed)
